Columns and labels:
lambsquarters [1] = assay: Test Example 5: herbicidal effect by foliage application, plastic box (Table 20, symbol O); type: in vivo, lambsquarters (Chenopodium album); conditions: foliage application; for effect on lambsquarters (O) / herbicidal effect grade, O: lambsquarters: 320 g/ha; for effect on lambsquarters (O): 3 weeks after application; for herbicidal effect grade, O: lambsquarters: three weeks after application
Summary of the method: (§1)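 Post-emergence foliar test in sterilized diluvial soil. Compound applied as water-diluted emulsion at a predetermined rate to 14-day-old plants; evaluation at three weeks.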

blackgrass [2] = assay: Test Example 5: herbicidal effect by foliage application, plastic box (Table 20, symbol J); type: in vivo, blackgrass (Alopecurus myosuroides); conditions: foliage application; for effect on blackgrass (J) / herbicidal effect grade, J: blackgrass: 320 g/ha; for effect on blackgrass (J): 3 weeks after application; for herbicidal effect grade, J: blackgrass: three weeks after application
Summary of the method: as §1

Italian ryegrass [3] = assay: Test Example 4: herbicidal effect by soil treatment (Table 19, symbol K); type: in vivo, Italian ryegrass (Lolium multiflorum); conditions: for K: Italian ryegrass, herbicidal effect rating: AAH 320 g/ha
Summary of the method: (§2)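 Scoring uses the grading scale of an earlier test, three weeks post-application. Treatment consists of spraying a diluted emulsion formulation across the surface of sterilized diluvial soil in which seeds are buried near 1.5 cm deep; boxes are kept in a greenhouse between 25° C. and 30° C.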

lambsquarters [4] = assay: Test Example 4: herbicidal effect by soil treatment (Table 19, symbol O); type: in vivo, lambsquarters (Chenopodium album); conditions: for O: lambsquarters, herbicidal effect rating: AAH 320 g/ha
Summary of the method: as §2

late watergrass [5] = assay: Test Example 2: herbicidal activity, application during weed generation under submerged conditions (Table 17, symbol A); type: in vivo, late watergrass (Echinochloa oryzicola); conditions: AAH 320 g/ha; application during weed generation, submerged conditions
Summary of the method: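 Effect on each weed is rated three weeks post-treatment, using the same scoring criteria as the preceding test. Plants grow from mixed-sown seed in flooded alluvial soil (4 cm water) at 25° C. to 30° C., and are treated at one to two leaves with diluted emulsion dropped onto the water.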

Italian ryegrass [6] = assay: Test Example 5: herbicidal effect by foliage application, plastic box (Table 20, symbol K); type: in vivo, Italian ryegrass (Lolium multiflorum); conditions: foliage application; for effect on Italian ryegrass (K) / herbicidal effect grade, K: Italian ryegrass: 320 g/ha; for effect on Italian ryegrass (K): 3 weeks after application; for herbicidal effect grade, K: Italian ryegrass: three weeks after application
Summary of the method: as §1

windgrass = assay: Test Example 4: herbicidal effect by soil treatment (Table 19, symbol L); type: in vivo, windgrass (Apera spica-venti)
Summary of the method: as §2

late watergrass [7] = assay: Test Example 1: herbicidal activity, application before weed generation under submerged conditions (Table 16, symbol A); type: in vivo, late watergrass (Echinochloa oryzicola); conditions: 320 g/ha applied herbicide
Summary of the method: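 Submerged Wagner pots (alluvial soil, 4 cm water) sown with weed seeds and planted with 2.5-leaf rice seedlings; emulsifiable concentrate diluted in water applied to water surface on sowing day. Held in greenhouse at 25-30 °C; injury scored 0-5 by herbicidal rate after three weeks.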

southern crabgrass = assay: Test Example 4: herbicidal effect by soil treatment (Table 19, symbol F); type: in vivo, southern crabgrass (Digitaria ciliaris); conditions: for F: southern crabgrass, herbicidal effect rating: AAH 320 g/ha
Summary of the method: as §2

barnyard grass = assay: Test Example 3: herbicidal effect by foliage application, Wagner pot (Table 18, symbol H); type: in vivo, barnyard grass (Echinochloa crus-galli); conditions: for herbicidal effect on H (barnyard grass), rating 0-5: 320 g/ha
Summary of the method: (§3)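 Plants were sown in alluvial soil held under 0.1–0.5 cm standing water and grown 14 days in a greenhouse at 25–30 °C. An emulsifiable formulation, water-diluted to the set dose, was then sprayed onto the foliage, and effects were scored three weeks later using previously defined criteria.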

velvetleaf [8] = assay: Test Example 5: herbicidal effect by foliage application, plastic box (Table 20, symbol M); type: in vivo, velvetleaf (Abutilon theophrasti); conditions: foliage application; for effect on velvetleaf (M) / herbicidal effect grade, M: velvetleaf: 320 g/ha; for effect on velvetleaf (M): 3 weeks after application; for herbicidal effect grade, M: velvetleaf: three weeks after application
Summary of the method: as §1

velvetleaf [9] = assay: Test Example 4: herbicidal effect by soil treatment (Table 19, symbol M); type: in vivo, velvetleaf (Abutilon theophrasti); conditions: for M: velvetleaf, herbicidal effect rating: AAH 320 g/ha
Summary of the method: as §2

blackgrass [10] = assay: Test Example 4: herbicidal effect by soil treatment (Table 19, symbol J); type: in vivo, blackgrass (Alopecurus myosuroides); conditions: for J: blackgrass, herbicidal effect rating: AAH 320 g/ha
Summary of the method: as §2

Chinese sprangletop = assay: Test Example 3: herbicidal effect by foliage application, Wagner pot (Table 18, symbol D); type: in vivo, chinese sprangletop (Leptochloa chinensis); conditions: for herbicidal effect on D (Chinese sprangletop), rating 0-5: 320 g/ha
Summary of the method: as §3

persian speedwell = assay: Test Example 4: herbicidal effect by soil treatment (Table 19, symbol R); type: in vivo, Persian speedwell (Veronica persica)
Summary of the method: as §2

redroot pigweed = assay: Test Example 5: herbicidal effect by foliage application, plastic box (Table 20, symbol N); type: in vivo, redroot pigweed (Amaranthus retroflexus); conditions: foliage application; for herbicidal effect grade, N: redroot pigweed: 320 g/ha, three weeks after application
Summary of the method: as §1

[11] = amount of applied herbicide 320 g/ha
[12] = AAH 320 g/ha, evaluated three weeks after application

| Compound | effect on lambsquarters (O) (lambsquarters [1]) | effect on blackgrass (J) (blackgrass [2]) | K: Italian ryegrass, herbicidal effect rating (Italian ryegrass [3]) | O: lambsquarters, herbicidal effect rating (lambsquarters [4]) | herbicidal effect rating, A: late watergrass (late watergrass [5]) | effect on Italian ryegrass (K) (Italian ryegrass [6]) | Herbicidal effect on A: late watergrass (grade 0-5) (late watergrass [7]) | F: southern crabgrass, herbicidal effect rating (southern crabgrass) | herbicidal effect on H (barnyard grass), rating 0-5 (barnyard grass) | effect on velvetleaf (M) (velvetleaf [8]) | M: velvetleaf, herbicidal effect rating (velvetleaf [9]) | J: blackgrass, herbicidal effect rating (blackgrass [10]) | herbicidal effect on D (Chinese sprangletop), rating 0-5 (Chinese sprangletop) | herbicidal effect grade, O: lambsquarters (lambsquarters [1]) | herbicidal effect grade, J: blackgrass (blackgrass [2]) | herbicidal effect rating, K: Italian ryegrass (Italian ryegrass [3]; [11]) | herbicidal effect rating, O: lambsquarters (lambsquarters [4]; [11]) | herbicidal effect grade, K: Italian ryegrass (Italian ryegrass [6]) | herbicidal effect rating, F: southern crabgrass (southern crabgrass; [11]) | herbicidal effect grade, M: velvetleaf (velvetleaf [8]) | further results |
| --- | --- | --- | --- | --- | --- | --- | --- | --- | --- | --- | --- | --- | --- | --- | --- | --- | --- | --- | --- | --- | --- |
| C=CCC(C)Oc1ccc(-c2sc3ccccc3c2-c2c(O)c(C)nn(C)c2=O)cc1 (racemic) [1-213] | 5 (Herbicidal rate of 90% or more (almost completely withered)) | 5 (Herbicidal rate of 90% or more (almost completely withered)) | 3 (Herbicidal rate of 40% or more and less than 70%) | 0 (Herbicidal rate of 5% or less (almost no effect)) | 3 (Herbicidal rate of 40% or more and less than 70%) | 4 (Herbicidal rate of 70% or more and less than 90%) | 5 (Herbicidal rate of 90% or more (almost completely withered)) | 0 (Herbicidal rate of 5% or less (almost no effect)) | 5 (Herbicidal rate of 90% or more (almost completely withered)) | 5 (Herbicidal rate of 90% or more (almost completely withered)) | 0 (Herbicidal rate of 5% or less (almost no effect)) | 1 (Herbicidal rate of 5% or more and less than 20%) | 4 (Herbicidal rate of 70% or more and less than 90%) | – | – | – | – | – | – | – | L: windgrass, herbicidal effect rating (windgrass; AAH 320 g/ha): 2 (Herbicidal rate of 20% or more and less than 40%) |
| COCC(C)Oc1ccc(-c2sc3ccccc3c2-c2c(O)c(C)nn(C)c2=O)cc1 (racemic) [1-228] | 5 (Herbicidal rate of 90% or more (almost completely withered)) | 5 (Herbicidal rate of 90% or more (almost completely withered)) | 4 (Herbicidal rate of 70% or more and less than 90%) | 5 (Herbicidal rate of 90% or more (almost completely withered)) | 5 (Herbicidal rate of 90% or more (almost completely withered)) | 4 (Herbicidal rate of 70% or more and less than 90%) | 5 (Herbicidal rate of 90% or more (almost completely withered)) | 4 (Herbicidal rate of 70% or more and less than 90%) | 5 (Herbicidal rate of 90% or more (almost completely withered)) | 5 (Herbicidal rate of 90% or more (almost completely withered)) | 4 (Herbicidal rate of 70% or more and less than 90%) | 4 (Herbicidal rate of 70% or more and less than 90%) | 5 (Herbicidal rate of 90% or more (almost completely withered)) | – | – | – | – | – | – | – | R: persian speedwell, herbicidal effect rating (persian speedwell; AAH 320 g/ha): 5 (Herbicidal rate of 90% or more (almost completely withered)) |
| CC(=O)c1ccc(-c2sc3ccccc3c2-c2c(O)c(C)nn(C)c2=O)cc1 [1-041] | – | – | – | – | 0 (Herbicidal rate of 5% or less (almost no effect)) | – | 3 (Herbicidal rate of 40% or more and less than 70%) | – | 1 (Herbicidal rate of 5% or more and less than 20%) | – | – | – | 4 (Herbicidal rate of 70% or more and less than 90%) | 3 (Herbicidal rate of 40% or more and less than 70%) | 0 (Herbicidal rate of 5% or less (almost no effect)) | 5 (Herbicidal rate of 90% or more (almost completely withered)) | 5 (Herbicidal rate of 90% or more (almost completely withered)) | 5 (Herbicidal rate of 90% or more (almost completely withered)) | 2 (Herbicidal rate of 20% or more and less than 40%) | 5 (Herbicidal rate of 90% or more (almost completely withered)) | herbicidal effect rating, M: velvetleaf (velvetleaf [9]; [11]): 3 (Herbicidal rate of 40% or more and less than 70%); herbicidal effect rating, J: blackgrass (blackgrass [10]; [11]): 0 (Herbicidal rate of 5% or less (almost no effect)); herbicidal effect grade, N: redroot pigweed (redroot pigweed): 5 (Herbicidal rate of 90% or more (almost completely withered)) |
| Cc1cc(-c2sc3ccccc3c2-c2c(O)c(C)nn(C)c2=O)ccc1F [1-051] | – | – | – | – | 2 (Herbicidal rate of 20% or more and less than 40%) | – | 4 (Herbicidal rate of 70% or more and less than 90%) | – | 4 (Herbicidal rate of 70% or more and less than 90%) | – | – | – | 0 (Herbicidal rate of 5% or less (almost no effect)) | 3 (Herbicidal rate of 40% or more and less than 70%) | 0 (Herbicidal rate of 5% or less (almost no effect)) | 3 (Herbicidal rate of 40% or more and less than 70%) | 4 (Herbicidal rate of 70% or more and less than 90%) | 3 (Herbicidal rate of 40% or more and less than 70%) | 4 (Herbicidal rate of 70% or more and less than 90%) | 5 (Herbicidal rate of 90% or more (almost completely withered)) | herbicidal effect rating, R: persian speedwell (persian speedwell; [11]): 4 (Herbicidal rate of 70% or more and less than 90%); herbicidal effect rating, M: velvetleaf (velvetleaf [9]; [11]): 4 (Herbicidal rate of 70% or more and less than 90%); herbicidal effect rating, J: blackgrass (blackgrass [10]; [11]): 0 (Herbicidal rate of 5% or less (almost no effect)); herbicidal effect grade, N: redroot pigweed (redroot pigweed): 5 (Herbicidal rate of 90% or more (almost completely withered)) |
| Cc1nn(C)c(=O)c(-c2c(-c3ccc(O)cc3)sc3ccc(F)cc23)c1O [2-337] | – | – | – | – | 0 (Herbicidal rate of 5% or less (almost no effect)) | – | 4 (Herbicidal rate of 70% or more and less than 90%) | – | – | – | – | – | – | – | – | – | – | – | – | – | O: lambsquarters, herbicidal effect (criteria 0-5) (lambsquarters [1]; [12]): 3 (Herbicidal rate of 40% or more and less than 70%); J: blackgrass, herbicidal effect (criteria 0-5) (blackgrass [2]; [12]): 0 (Herbicidal rate of 5% or less (almost no effect)); herbicidal effect on K: Italian ryegrass (Italian ryegrass [3]; [11]): 0 (Herbicidal rate of 5% or less (almost no effect)); herbicidal effect on O: lambsquarters (lambsquarters [4]; [11]): 0 (Herbicidal rate of 5% or less (almost no effect)); K: Italian ryegrass, herbicidal effect (criteria 0-5) (Italian ryegrass [6]; [12]): 0 (Herbicidal rate of 5% or less (almost no effect)); herbicidal effect on L: windgrass (windgrass; [11]): 0 (Herbicidal rate of 5% or less (almost no effect)); herbicidal effect on F: southern crabgrass (southern crabgrass; [11]): 0 (Herbicidal rate of 5% or less (almost no effect)); herbicidal effect on H: barnyard grass (barnyard grass; [11]): 3 (Herbicidal rate of 40% or more and less than 70%); M: velvetleaf, herbicidal effect (criteria 0-5) (velvetleaf [8]; [12]): 3 (Herbicidal rate of 40% or more and less than 70%); herbicidal effect on M: velvetleaf (velvetleaf [9]; [11]): 0 (Herbicidal rate of 5% or less (almost no effect)); herbicidal effect on J: blackgrass (blackgrass [10]; [11]): 0 (Herbicidal rate of 5% or less (almost no effect)); N: redroot pigweed, herbicidal effect (criteria 0-5) (redroot pigweed; [12]): 4 (Herbicidal rate of 70% or more and less than 90%); herbicidal effect on D: Chinese sprangletop (Chinese sprangletop; [11]): 0 (Herbicidal rate of 5% or less (almost no effect)) |
